{"source": "ChEMBL document CHEMBL1153898", "about": "“Indolyl-pyrrolone as a new scaffold for Pim1 inhibitors” (Bioorg Med Chem Lett, 2009)", "note": "Active and inactive are the calls of the source. No cut-off for these calls is given here.", "data": [{"tested_on": "LNCaP", "experiment": "Antiproliferative activity against human LNCAP cells assessed as reduction in cell number after 72 hrs", "assay_type": "functional, cell-based", "conditions": "not given", "units": {"IC50": "µM"}, "values": [{"smiles": "CCc1ccc(C2C(C(C)=O)=C(O)C(=O)N2CCc2c[nH]c3ccccc23)cc1", "note": "(stereo unspecified)", "IC50": 10.6}]}, {"target": "T1, Serine/threonine-protein kinase pim-1 (Homo sapiens, UniProt P11309)", "experiment": "Inhibition of human recombinant Pim1 expressed in insect cells by HTRF", "conditions": "not given", "units": {"Ki": "µM", "IC50": "µM"}, "values": [{"smiles": "COc1cc(C2C(C(C)=O)=C(O)C(=O)N2CCc2c[nH]c3ccccc23)ccc1O", "note": "(stereo unspecified)", "Ki": 4.5}, {"smiles": "CC(=O)C1=C(O)C(=O)N(CCc2c[nH]c3ccccc23)C1c1ccc(O)cc1", "note": "(stereo unspecified)", "Ki": 2.2}, {"smiles": "O/N=C/c1ccccc1OCC(O)Cn1c2ccccc2c2ccccc21", "note": "(stereo unspecified)", "IC50": 16}, {"smiles": "CCc1ccc(C2C(C(C)=O)=C(O)C(=O)N2CCc2c[nH]c3ccccc23)cc1", "note": "(stereo unspecified)", "Ki": 2.1}, {"smiles": "CN(C)CCCn1cc(C2=C(c3cn(C)c4ccccc34)C(=O)NC2=O)c2ccccc21", "IC50": 0.15}, {"smiles": "CN1C2C=C(N(CCc3c[nH]c4ccccc34)C(=O)c3ccc(Cl)cc3)CCC1CC2", "note": "(stereo unspecified)", "IC50": 2.1}, {"smiles": "CCOc1ccc(C2C(C(C)=O)=C(O)C(=O)N2CCc2c[nH]c3ccccc23)cc1", "note": "(stereo unspecified)", "Ki": 4.2}]}, {"tested_on": "PC-3", "experiment": "Antiproliferative activity against human PC3 cells assessed as reduction in cell number after 72 hrs", "assay_type": "functional, cell-based", "conditions": "PC-3, 72 h", "units": {"IC50": "µM"}, "values": [{"smiles": "CCc1ccc(C2C(C(C)=O)=C(O)C(=O)N2CCc2c[nH]c3ccccc23)cc1", "note": "(stereo unspecified)", "IC50": 10.1}]}, {"tested_on": "PC-3", "experiment": "Cell cycle arrest in human PC3 cells assessed as accumulation at S phase at 10 uM after 72 hrs by cytofluorimetric assay", "assay_type": "functional", "conditions": "not given", "units": {"Activity": "%"}, "values": [{"smiles": "CCc1ccc(C2C(C(C)=O)=C(O)C(=O)N2CCc2c[nH]c3ccccc23)cc1", "note": "(stereo unspecified)", "Activity": 20.81}]}, {"target": "T1, Serine/threonine-protein kinase pim-1", "experiment": "Inhibition of human recombinant Pim1 expressed in insect cells at 100 uM", "conditions": "not given", "units": {"inhibition": "%"}, "values": [{"smiles": "COc1cc(C2C(C(C)=O)=C(O)C(=O)N2CCc2c[nH]c3ccccc23)ccc1O", "note": "(stereo unspecified)", "inhibition": 90}, {"smiles": "C/C(=C/c1sc2ccccc2[n+]1CCO)C/C=C1/Sc2ccccc2N1CCO", "inhibition": -4}, {"smiles": "CC(Cc1ccccc1)NC(=O)C(c1ccc(N)cc1)c1ccc(N)cc1", "note": "(stereo unspecified)", "inhibition": -7}, {"smiles": "CC(=O)C1=C(O)C(=O)N(CCc2c[nH]c3ccccc23)C1c1ccc(O)cc1", "note": "(stereo unspecified)", "inhibition": 92}, {"smiles": "CC(=O)C1=C(O)C(=O)N(CCc2c[nH]c3ccccc23)C1c1cccc(O)c1", "note": "(stereo unspecified)", "inhibition": 84}, {"smiles": "O/N=C/c1ccccc1OCC(O)Cn1c2ccccc2c2ccccc21", "note": "(stereo unspecified)", "inhibition": 75}, {"smiles": "COC(=O)c1ccc(C2C(C(C)=O)=C(O)C(=O)N2CCc2c[nH]c3ccccc23)cc1", "note": "(stereo unspecified)", "inhibition": 57}, {"smiles": "CCc1ccc(C2C(C(C)=O)=C(O)C(=O)N2CCc2c[nH]c3ccccc23)cc1", "note": "(stereo unspecified)", "inhibition": 79}, {"smiles": "CC(=O)C1=C(O)C(=O)N(CCc2c[nH]c3ccccc23)C1c1ccc(C)cc1", "note": "(stereo unspecified)", "inhibition": 54}, {"smiles": "CN1C2C=C(N(CCc3c[nH]c4ccccc34)C(=O)c3ccc(Cl)cc3)CCC1CC2", "note": "(stereo unspecified)", "inhibition": 30}, {"smiles": "CCOc1ccc(C2C(C(C)=O)=C(O)C(=O)N2CCc2c[nH]c3ccccc23)cc1", "note": "(stereo unspecified)", "inhibition": 71}, {"smiles": "CC(=O)Nc1ccc(-c2csc(-c3c[nH]c4ccccc34)n2)cc1", "inhibition": 1}]}, {"tested_on": "PC-3", "experiment": "Cell cycle arrest in human PC3 cells assessed as accumulation at G1 phase at 10 uM after 72 hrs by cytofluorimetric assay", "assay_type": "functional", "conditions": "not given", "units": {"Activity": "%"}, "values": [{"smiles": "CCc1ccc(C2C(C(C)=O)=C(O)C(=O)N2CCc2c[nH]c3ccccc23)cc1", "note": "(stereo unspecified)", "Activity": 64.24}]}, {"target": "T1, Serine/threonine-protein kinase pim-1", "experiment": "Inhibition of recombinant Pim1 by scintillation counter", "conditions": "not given", "units": {"ID50": "µM"}, "values": [{"smiles": "COc1cc(C2C(C(C)=O)=C(O)C(=O)N2CCc2c[nH]c3ccccc23)ccc1O", "note": "(stereo unspecified)", "ID50": 9.5}, {"smiles": "CC(=O)C1=C(O)C(=O)N(CCc2c[nH]c3ccccc23)C1c1ccc(O)cc1", "note": "(stereo unspecified)", "ID50": 5.2}, {"smiles": "CC(=O)C1=C(O)C(=O)N(CCc2c[nH]c3ccccc23)C1c1cccc(O)c1", "note": "(stereo unspecified)", "ID50": 19}, {"smiles": "COC(=O)c1ccc(C2C(C(C)=O)=C(O)C(=O)N2CCc2c[nH]c3ccccc23)cc1", "note": "(stereo unspecified)", "ID50": 13}, {"smiles": "CCc1ccc(C2C(C(C)=O)=C(O)C(=O)N2CCc2c[nH]c3ccccc23)cc1", "note": "(stereo unspecified)", "ID50": 4.5}, {"smiles": "CC(=O)C1=C(O)C(=O)N(CCc2c[nH]c3ccccc23)C1c1ccc(C)cc1", "note": "(stereo unspecified)", "ID50": 10}, {"smiles": "CCOc1ccc(C2C(C(C)=O)=C(O)C(=O)N2CCc2c[nH]c3ccccc23)cc1", "note": "(stereo unspecified)", "ID50": 12}]}, {"tested_on": "PC-3", "experiment": "Cell cycle arrest in human PC3 cells assessed as accumulation at G2 phase at 10 uM after 72 hrs by cytofluorimetric assay", "assay_type": "functional", "conditions": "not given", "units": {"Activity": "%"}, "values": [{"smiles": "CCc1ccc(C2C(C(C)=O)=C(O)C(=O)N2CCc2c[nH]c3ccccc23)cc1", "note": "(stereo unspecified)", "Activity": 14.94}]}, {"tested_on": "LNCaP", "experiment": "Cell cycle arrest in human LNCAP cells assessed as accumulation at G2 phase at 10 uM after 72 hrs by cytofluorimetric assay", "assay_type": "functional", "conditions": "not given", "units": {"Activity": "%"}, "values": [{"smiles": "CCc1ccc(C2C(C(C)=O)=C(O)C(=O)N2CCc2c[nH]c3ccccc23)cc1", "note": "(stereo unspecified)", "Activity": 25.61}]}, {"tested_on": "LNCaP", "experiment": "Cell cycle arrest in human LNCAP cells assessed as accumulation at S phase at 10 uM after 72 hrs by cytofluorimetric assay", "assay_type": "functional", "conditions": "not given", "units": {"Activity": "%"}, "values": [{"smiles": "CCc1ccc(C2C(C(C)=O)=C(O)C(=O)N2CCc2c[nH]c3ccccc23)cc1", "note": "(stereo unspecified)", "Activity": 34.92}]}, {"tested_on": "LNCaP", "experiment": "Cell cycle arrest in human LNCAP cells assessed as accumulation at G1 phase at 10 uM after 72 hrs by cytofluorimetric assay", "assay_type": "functional", "conditions": "not given", "units": {"Activity": "%"}, "values": [{"smiles": "CCc1ccc(C2C(C(C)=O)=C(O)C(=O)N2CCc2c[nH]c3ccccc23)cc1", "note": "(stereo unspecified)", "Activity": 39.47}]}, {"target": "T1, Serine/threonine-protein kinase pim-1", "experiment": "Inhibition of recombinant Pim1 with increasing concentration of ATP", "conditions": "not given", "values": [{"smiles": "COc1cc(C2C(C(C)=O)=C(O)C(=O)N2CCc2c[nH]c3ccccc23)ccc1O", "note": "(stereo unspecified)", "Activity": "Active"}, {"smiles": "CC(=O)C1=C(O)C(=O)N(CCc2c[nH]c3ccccc23)C1c1ccc(O)cc1", "note": "(stereo unspecified)", "Activity": "Active"}, {"smiles": "CC(=O)C1=C(O)C(=O)N(CCc2c[nH]c3ccccc23)C1c1cccc(O)c1", "note": "(stereo unspecified)", "Activity": "Active"}, {"smiles": "COC(=O)c1ccc(C2C(C(C)=O)=C(O)C(=O)N2CCc2c[nH]c3ccccc23)cc1", "note": "(stereo unspecified)", "Activity": "Active"}, {"smiles": "CCc1ccc(C2C(C(C)=O)=C(O)C(=O)N2CCc2c[nH]c3ccccc23)cc1", "note": "(stereo unspecified)", "Activity": "Active"}, {"smiles": "CC(=O)C1=C(O)C(=O)N(CCc2c[nH]c3ccccc23)C1c1ccc(C)cc1", "note": "(stereo unspecified)", "Activity": "Active"}, {"smiles": "CCOc1ccc(C2C(C(C)=O)=C(O)C(=O)N2CCc2c[nH]c3ccccc23)cc1", "note": "(stereo unspecified)", "Activity": "Active"}]}]}
